Experimental data published in patent US20030180808A1, “Drug signatures” (priority 2002, published 2003).
“Also recorded” adds a separate entry of the source. Read-outs that look alike come from different tables or passages of the source.

Legend:
[1] = rats, from the literature or experience, cited from earlier work
PXR receptors = target: T1, PXR receptors (Mus musculus, UniProt O54915); details: cited from earlier work
T1 sequence (O54915 1-431): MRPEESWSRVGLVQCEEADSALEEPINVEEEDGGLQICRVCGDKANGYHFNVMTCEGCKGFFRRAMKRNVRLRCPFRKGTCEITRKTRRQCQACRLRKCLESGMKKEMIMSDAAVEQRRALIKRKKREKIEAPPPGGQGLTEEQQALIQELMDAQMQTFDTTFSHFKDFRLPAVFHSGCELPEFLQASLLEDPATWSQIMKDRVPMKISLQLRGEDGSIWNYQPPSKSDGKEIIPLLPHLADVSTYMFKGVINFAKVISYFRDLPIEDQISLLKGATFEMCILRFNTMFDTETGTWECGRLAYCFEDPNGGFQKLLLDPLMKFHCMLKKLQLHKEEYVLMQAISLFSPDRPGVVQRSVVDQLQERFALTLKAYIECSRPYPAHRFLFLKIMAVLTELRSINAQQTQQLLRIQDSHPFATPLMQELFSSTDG

[2] = tested on: 123 assays completed (panel of sites of drug action and drug toxicity); experiment: Molecular pharmacology assay panel (MDS-Pharma Services catalog); details: for activity in the 123 assays completed: <50% inhibition binned as 0, preliminary test at 30 μM
estrogen receptor [3] = target: T2, estrogen receptor (Homo sapiens, UniProt P03372); details: read-out: EC50 stimulation of ER; cited from earlier work
T2 sequence (P03372 1-595): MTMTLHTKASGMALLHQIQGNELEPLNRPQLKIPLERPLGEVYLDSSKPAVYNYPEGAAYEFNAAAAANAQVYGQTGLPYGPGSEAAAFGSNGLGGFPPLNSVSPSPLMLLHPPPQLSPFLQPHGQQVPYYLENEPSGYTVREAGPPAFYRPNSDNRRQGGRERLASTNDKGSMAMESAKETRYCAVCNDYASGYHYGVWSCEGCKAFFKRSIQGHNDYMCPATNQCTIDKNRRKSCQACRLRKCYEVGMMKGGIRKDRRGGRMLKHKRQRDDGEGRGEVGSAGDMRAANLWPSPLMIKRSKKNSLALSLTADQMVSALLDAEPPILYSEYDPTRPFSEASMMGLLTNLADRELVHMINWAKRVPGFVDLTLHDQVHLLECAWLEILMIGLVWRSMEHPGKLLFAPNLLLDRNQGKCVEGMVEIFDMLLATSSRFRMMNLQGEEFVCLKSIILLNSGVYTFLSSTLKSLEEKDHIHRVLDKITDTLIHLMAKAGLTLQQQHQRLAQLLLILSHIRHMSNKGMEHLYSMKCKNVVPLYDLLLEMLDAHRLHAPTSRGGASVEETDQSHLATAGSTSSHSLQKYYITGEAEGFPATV

PPARα = target: T3, PPARα (Homo sapiens, UniProt Q07869); details: cited from earlier work
T3 sequence (Q07869 1-468): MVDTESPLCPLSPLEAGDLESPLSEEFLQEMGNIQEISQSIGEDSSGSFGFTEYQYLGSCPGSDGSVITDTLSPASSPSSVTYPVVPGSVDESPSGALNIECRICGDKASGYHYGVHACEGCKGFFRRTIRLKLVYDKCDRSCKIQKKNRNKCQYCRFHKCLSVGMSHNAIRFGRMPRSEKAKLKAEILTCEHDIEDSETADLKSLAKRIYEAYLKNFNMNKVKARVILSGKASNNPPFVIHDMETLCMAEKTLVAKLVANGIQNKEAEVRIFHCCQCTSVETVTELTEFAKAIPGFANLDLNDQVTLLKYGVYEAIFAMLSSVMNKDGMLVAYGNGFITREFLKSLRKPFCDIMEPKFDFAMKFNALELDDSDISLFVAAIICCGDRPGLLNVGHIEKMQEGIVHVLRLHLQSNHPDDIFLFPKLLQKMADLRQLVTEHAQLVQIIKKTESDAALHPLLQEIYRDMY

estrogen receptor [4] = target: T2, estrogen receptor; experiment: Molecular pharmacology panel assay: estrogen receptor
site-2 sodium channel = experiment: Molecular pharmacology panel assay: site-2 sodium channel
[5] = hypertriglyceridemic patients; known side effect; cited from earlier work

Row | Compound | maximum tolerated dose (MTD) ([1]; subcutaneously in arrachis oil) | activity in the 123 assays completed [2] | maximum tolerated dose (MTD) ([1]; oral gavage in 1% NaCMC) | further results
1 | CC(C)(c1ccc(O)cc1)c1ccc(O)cc1 [BPA, bisphenol A] | 150 mg/kg |  |  | activity on PXR (PXR receptors): completely inactive
2 | CCOC(=O)C(C)(C)Oc1ccc(Cl)cc1 [Clofibrate, clofibrate] |  | no activity | 250 mg/kg | 
3 | CCCCC(CC)COC(=O)c1ccccc1C(=O)OCC(CC)CCCC (centres unmarked) [DEHP] |  | no activity | 1,000 mg/kg | EC50 (estrogen receptor [3]): ~1000 nM; stimulation of PPARα (PPARα): potently stimulate
4 | C[C@]12CC[C@@H]3c4ccc(O)cc4CC[C@H]3[C@@H]1CC[C@@H]2O [Estradiol] |  |  |  | activity on PXR (PXR receptors): completely inactive
5 | CC(C)OC(=O)C(C)(C)Oc1ccc(C(=O)c2ccc(Cl)cc2)cc1 [Fenofibrate] |  |  | 1,000 mg/kg | interaction with the estrogen receptor (estrogen receptor [4]): interacted weakly; interaction with the site-2 sodium channel (site-2 sodium channel): interacted weakly
6 | Cc1ccc(C)c(OCCCC(C)(C)C(=O)O)c1 [Gemfibrozil, gemfibrozil] |  | no activity | 300 mg/kg | effect on LDL levels [5]: induce an increase in LDL (low density lipoprotein) levels; also recorded: induces an increase in LDL levels
7 | CC(C)(C)CC(C)(C)c1ccc(O)cc1 [OP] | 450 mg/kg |  |  | number of assays in which compound interacted ([2]; of the 123 assays conducted): 16
8 | C[C@]12CC[C@@H]3c4ccc(OC(=O)c5ccccc5)cc4CC[C@H]3[C@@H]1CC[C@@H]2O [estradiol benzoate, Estradiol benzoate] | 2 mg/kg |  |  | 
9 | nonylphenol |  |  |  | EC50 (estrogen receptor [3]): ~1000 nM; EC50 (PXR receptors; read-out: EC50 stimulation of PXR receptors): ~500 nM
